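Five compound concentrations were applied to cells in 96-well plates for 48 hours; endpoints were derived by simple linear interpolation of the resulting dose-response curve. GI50 marks 50% less growth.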 Activity calls are given as the source filed them. Rule as the data show it: active = GI50 up to about 1.1 µM and inactive = higher.
Assays:
Assay in all cases: growth of human tumour cells (NCI), 48 h
COLO 205 = system: COLO 205
SF-539 = system: SF-539
ACHN = system: ACHN
K562 = system: K562
SF-295 = system: SF-295
A549 = system: A549
SK-OV-3 = system: SK-OV-3
NCI-H460 = system: NCI-H460
HOP-62 = system: HOP-62
MDA-N = system: MDA-N
HCT-116 = system: HCT-116
UO-31 = system: UO-31
NCI-H226 = system: NCI-H226
U-251 = system: U-251
SNB-19 = system: SNB-19
NCI/ADR-RES = system: NCI/ADR-RES
Malme-3M = system: Malme-3M
MDA-MB-435 = system: MDA-MB-435
A498 = system: A498
NCI-H522 = system: NCI-H522

Measured: GI50

CO/C(=N\N=C\c1ccc(Cl)c(Cl)c1)c1ccncc1
inactive: COLO 205 > 10 µM | SF-539 > 10 µM | ACHN 4.99 µM | K562 > 10 µM | SF-295 > 10 µM | A549 > 10 µM | SK-OV-3 > 10 µM | NCI-H460 > 10 µM | HOP-62 > 10 µM | MDA-N > 10 µM | HCT-116 > 10 µM | UO-31 > 10 µM | NCI-H226 > 10 µM | U-251 > 10 µM | SNB-19 > 10 µM | NCI/ADR-RES > 10 µM | Malme-3M > 10 µM

CCOC(=O)C(C(C)=O)C1CC=CC1 (centres undefined)
inactive: COLO 205 > 100 µM | ACHN > 100 µM | K562 > 100 µM | SF-295 > 100 µM | A549 > 100 µM | SK-OV-3 > 100 µM | NCI-H460 > 100 µM | HOP-62 > 100 µM | HCT-116 > 100 µM | UO-31 > 100 µM | NCI-H226 > 100 µM | U-251 > 100 µM | SNB-19 > 100 µM | Malme-3M > 100 µM

COC(=O)[C@@H]1CN(C(=O)Cc2ccccc2)C(=O)N1
inactive: COLO 205 > 100 µM | SF-539 > 100 µM | ACHN > 100 µM | MDA-MB-435 > 100 µM | K562 > 100 µM | SF-295 > 100 µM | A549 > 100 µM | NCI-H460 > 100 µM | HOP-62 > 100 µM | HCT-116 > 100 µM | UO-31 > 100 µM | NCI-H226 > 100 µM | A498 > 100 µM | NCI-H522 > 100 µM | U-251 > 100 µM | SNB-19 > 100 µM | NCI/ADR-RES > 100 µM | Malme-3M > 100 µM

O=c1[nH]c(=O)n(C2CC(O)C(CO)O2)cc1C#Cc1cc(C(F)(F)F)cc(C(F)(F)F)c1 (centres undefined)
inactive: COLO 205 > 21.3 µM | SF-539 26.5 µM | ACHN > 29.4 µM | K562 > 100 µM | SF-295 17.3 µM | A549 > 24.7 µM | SK-OV-3 91.2 µM | HOP-62 > 68.1 µM | HCT-116 > 22.8 µM | UO-31 > 30.6 µM | NCI-H226 > 100 µM | A498 > 100 µM | NCI-H522 25.1 µM | U-251 18 µM | SNB-19 20.1 µM | Malme-3M 34.8 µM

CCCN(CCC)CCc1ccc(OC2=CCN(C)CC2)cc1
inactive: COLO 205 50.6 µM | ACHN 95.5 µM | MDA-MB-435 33 µM | K562 42.6 µM | SF-295 > 100 µM | A549 > 100 µM | SK-OV-3 > 100 µM | HOP-62 > 100 µM | MDA-N 36.6 µM | HCT-116 39.8 µM | UO-31 23.6 µM | NCI-H226 > 100 µM | NCI-H522 21.1 µM | U-251 > 100 µM | SNB-19 > 100 µM | NCI/ADR-RES > 100 µM | Malme-3M 13.8 µM

COc1ccc(-c2c3c(nc4nc(SC)nc(SC)c24)CCCC3)cc1OC
inactive: COLO 205 > 100 µM | SF-539 > 100 µM | ACHN 72.4 µM | MDA-MB-435 54.3 µM | K562 28.2 µM | SF-295 57.5 µM | A549 > 100 µM | SK-OV-3 > 100 µM | NCI-H460 29.2 µM | HOP-62 46.8 µM | MDA-N 29.9 µM | HCT-116 44.4 µM | UO-31 37.1 µM | NCI-H226 56.6 µM | A498 > 100 µM | NCI-H522 31.6 µM | U-251 70.3 µM | SNB-19 > 100 µM | Malme-3M 42.5 µM

Cc1cc(S(=O)(=O)O)c(NC(=O)C(=O)C2C=CCS2(=O)=O)cc1Cl (centres undefined)
inactive: COLO 205 > 100 µM | SF-539 > 100 µM | ACHN > 100 µM | K562 > 100 µM | SF-295 > 100 µM | A549 > 100 µM | SK-OV-3 > 100 µM | NCI-H460 > 100 µM | HOP-62 > 100 µM | HCT-116 > 100 µM | UO-31 > 100 µM | NCI-H226 > 100 µM | A498 > 100 µM | NCI-H522 > 100 µM | U-251 > 100 µM | SNB-19 > 100 µM | Malme-3M > 100 µM

O=c1cc(-c2nc3ccccc3[nH]2)[nH]c2nc(-c3nc4ccccc4[nH]3)cc(-c3ccc(Cl)cc3)c12
inactive: COLO 205 12.1 µM | SF-539 15.9 µM | ACHN 16.6 µM | MDA-MB-435 15.7 µM | K562 16.1 µM | SF-295 21.5 µM | A549 24.4 µM | SK-OV-3 15.3 µM | NCI-H460 16.3 µM | HOP-62 24.4 µM | MDA-N 20.5 µM | HCT-116 17 µM | UO-31 11.2 µM | NCI-H226 16.9 µM | NCI-H522 6.27 µM | U-251 16.1 µM | SNB-19 46.3 µM | NCI/ADR-RES 28.4 µM | Malme-3M 23 µM

NC12CCC(CC1=O)C2 (centres undefined)
inactive: COLO 205 > 100 µM | SF-539 > 100 µM | ACHN > 100 µM | MDA-MB-435 > 100 µM | K562 > 100 µM | SF-295 > 100 µM | A549 > 100 µM | SK-OV-3 > 100 µM | HOP-62 > 100 µM | MDA-N > 100 µM | HCT-116 > 100 µM | UO-31 > 100 µM | NCI-H226 > 100 µM | U-251 > 100 µM | NCI/ADR-RES > 100 µM | Malme-3M > 100 µM

CC1(C)CCC[C@@]2(C)C1C[C@H](O)[C@@]1(C)O[C@@](C)([C@H](O)CO)CCC21 (some centres undefined)
inactive: COLO 205 25.3 µM | SF-539 37.2 µM | ACHN 26 µM | K562 26.9 µM | SF-295 35.6 µM | A549 36.2 µM | SK-OV-3 25.1 µM | NCI-H460 40.9 µM | HOP-62 62.7 µM | HCT-116 33 µM | UO-31 26.1 µM | NCI-H226 28.7 µM | A498 20.9 µM | NCI-H522 25.9 µM | U-251 37.2 µM | SNB-19 49.8 µM | Malme-3M 40.6 µM

OC[C@@H](O)[C@H]1NC[C@@H](O)[C@H]1O
inactive: COLO 205 > 100 µM | SF-539 > 100 µM | ACHN > 100 µM | MDA-MB-435 > 100 µM | SF-295 > 100 µM | A549 > 100 µM | SK-OV-3 > 100 µM | NCI-H460 > 100 µM | HOP-62 > 100 µM | MDA-N > 100 µM | HCT-116 > 100 µM | UO-31 > 100 µM | A498 > 100 µM | NCI-H522 > 100 µM | U-251 > 100 µM | SNB-19 > 100 µM | Malme-3M > 100 µM

COC1C(=[N+]=[N-])C(=O)NC(=O)N1C1OC(COC(c2ccccc2)(c2ccccc2)c2ccccc2)C(O)C1O (centres undefined)
inactive: COLO 205 19.6 µM | SF-539 19.9 µM | ACHN 18.1 µM | K562 19.7 µM | SF-295 18 µM | A549 17.5 µM | SK-OV-3 20.5 µM | NCI-H460 25.4 µM | HOP-62 22.7 µM | HCT-116 18.2 µM | UO-31 18.2 µM | NCI-H226 17.5 µM | A498 20.1 µM | NCI-H522 16.2 µM | U-251 19.7 µM | SNB-19 19.7 µM | Malme-3M 16.1 µM

— ChEMBL document CHEMBL1201862, “PubChem BioAssay data set” (2004)
